Experimental data as given in US8017584B2, “GD3-mimetic peptides” (Otsuka Pharmaceutical Co., Ltd., priority 2000, dated 2011).
Values joined by “and” are separate entries in the source; they are usually repeats but may differ in a detail not shown here. Equal values may be shown once.

How the values were obtained:
GD3 antibody 4F6 = experiment: ELISA of immobilized MAP-form GD3-mimetic peptides with anti-GD3 antibody (Example 3(3)); type: binding, mouse; conditions: for ELISA absorbance, Anti-GD3 antibody: MAP form 100 ng/well
Procedure: A 0.1M NaHCO3 solution containing each of the phage clones obtained in Example 1 (10^11, 10^10, or 10^9 titer/100 μL) was added to the wells of a 96-well microtiter plate (product of Nunc), for immobilization of the phage clones at room temperature for one hour. The supernatant was removed, then the wells were subjected to blocking by use of a blocking solution ([…]; TBS containing 1% BSA, 0.1% skim milk, and 0.02% Tween 20; pH 7.5) at 37° C. for four hours.
The supernatant was removed, then GD3 antibody 4F6 (100 μL), serving as a primary antibody, was added to each well for reaction under shaking at room temperature for two hours. After completion of reaction, the supernatant was removed, then the wells were washed six times with a washing solution (400 μL for each well, TBS containing 0.05% Tween 20). Subsequently, a secondary antibody (anti-mouse IgG-HRP, product of Santa Cruz Biotechnology, catalogue No. SC-2031, Lot. No. C089) which was diluted 5,000-fold by use of a blocking solution prepared in advance was added to the wells (100 μL to each well) for reaction under shaking at room temperature for one hour. After completion of reaction, the wells were washed four times with a washing solution (400 μL for each well), then a detection reagent (TMB Microwell; product of KPL, Catalogue No. 50-76-04, Lot. No. WF075) was added to the wells (100 μL to each well), and the mixture was allowed to stand for five minutes at room temperature.
1N-Hydrochloric acid (100 μL) was added to each well for stopping the reaction. Absorbance of each well was measured at 450 nm and 620 nm, and “OD450-OD620” was calculated. A Multiscan (product of Labosystems) was used in measurement of absorbance. A well in which phages had not been immobilized served as a blank, and the absorbance of each well was determined by subtracting the blank value from the “as-measured” value.
(§1) A 0.1M NaHCO3 solution containing a GD3-mimetic peptide of the invention in the above MAP form (100 ng/100 μL) was added to the wells of a 96-well micro-titer plate, for immobilization at room temperature for one hour. Subsequently, in a manner similar to the ELISA method employed in Example 2, binding affinity of the GD3-mimetic peptide to GD3 antibody 4F6 was investigated.
(§2) Anti-GD2 antibody and anti-OAcGD3 antibody (Cerato, E., et al., Hybridoma, 16(4), 307-316 (1997)) were used as controls (these antibodies were kindly provided by from Dr. Portoukalian).

Anti-GD2 antibody = experiment: ELISA of immobilized MAP-form peptides with control anti-GD2 antibody; type: binding; conditions: MAP form 100 ng/well
Procedure: as §1, §2

Anti-OAcGD3 antibody = experiment: ELISA of immobilized MAP-form peptides with control anti-OAcGD3 antibody; type: binding; conditions: MAP form 100 ng/well
Procedure: as §1, §2

[1] = Titer against GD3 (ELISA) of antiserum from mice immunized with MAP peptides (Example 4); type: in vivo, mice (C57BL/6); conditions: for reactivity of antiserum with GD3 (ELISA absorbance): individual mice
Procedure: Four species of GD3-mimetic peptide (MAP) obtained in Example 3 (2) was dissolved in PBS so as to attain a concentration of 200 μg/mL. The solution was added to Freund's complete (or incomplete) adjuvant (1:1, by volume), to thereby prepare an emulsion.
Eight mice (C57BL/6) were immunized by subcutaneous administration of the above emulsion (0.2 mL/mouse, in one administration, […]). Administration was performed every two weeks (for the second and subsequent administrations, Freund's incomplete adjuvant was used). After one week following respective administrations, blood was collected from the tail of each mouse, to thereby yield antiserum.
The antiserum obtained directly after the first administration will be referred to “1-st,” that obtained after the second administration will be referred to “2-nd,” and that obtained after the third administration will be referred to “3-rd.”
The titer, against GD3, of each of the antiserum samples (3×8 mice=24 samples) obtained in the (1) above was measured through ELISA as described below.
The thus-obtained purified GD3 was dissolved in methanol, whereby a GD3 solution having a concentration of 10 μg/mL was prepared. The GD3 solution was added to the wells of a 96-well micro-titer plate in amounts of 10 μL per well (which corresponds to 100 ng GD3 per well), and methanol was evaporated. Subsequently, a blocking solution (TBS supplemented with 1% BSA) was added to the wells in amounts of 50 μL per well, for blocking at 37° C. for 4 hours.
The supernatant was discarded. Each of the antiserum samples obtained in (1) above was diluted 100-fold, 400-fold, or 1,600 fold with the above-mentioned blocking solution. The diluted antiserum (50 μL) was added to each well for reaction at 4° C. overnight. The well was washed six times with TBS, and thereafter, HRP-labeled […] diluted 5,000-fold with the blocking solution was added (50 μL per well) for reaction for 2 hours at room temperature. The well was washed four times with TBS, and thereafter, enzymatic activity (peroxidase) of the well was detected with TMB solution (50 μL). The reaction was stopped with 1N HCl (50 μL), and the value corresponding to “420 nm-620 nm” was calculated.
A control sample was prepared as follows. […] The synthesized peptide was administered to a mouse for immunization, and the obtained antiserum served as a control sample. The titer of the control sample was obtained in a manner similar to that described above. (However, the number of provided mice was five, and only a 100-fold diluted solution was used.) This control peptide sample was also used in the form of MAP as described above.

RHAYRSMAEWGFLYS (RHAYRSMAQWGFLYS) [GD3R4, tested as phage clone, MAP form or peptide]
binding to the anti-GD3 antibody (GD3 antibody 4F6): stronger bonding to the anti-GD3 antibody | ELISA absorbance, Anti-GD3 antibody (GD3 antibody 4F6; Serum % 12.50%): 0.144 | ELISA absorbance, Anti-GD3 antibody (GD3 antibody 4F6; Serum % 25%): 0.229 | ELISA absorbance, Anti-GD3 antibody (GD3 antibody 4F6; Serum % 50%): 0.309 | ELISA absorbance, Anti-GD3 antibody (GD3 antibody 4F6; Serum % 100%): 0.381 | ELISA absorbance, Anti-GD2 antibody (Anti-GD2 antibody; Serum % 12.50%): 0.061 | ELISA absorbance, Anti-GD2 antibody (Anti-GD2 antibody; Serum % 25%): 0.072 | ELISA absorbance, Anti-GD2 antibody (Anti-GD2 antibody; Serum % 50%): 0.103 | ELISA absorbance, Anti-GD2 antibody (Anti-GD2 antibody; Serum % 100%): 0.149 | ELISA absorbance, Anti-OAcGD3 antibody (Anti-OAcGD3 antibody; Serum % 12.50%): 0.045 | ELISA absorbance, Anti-OAcGD3 antibody (Anti-OAcGD3 antibody; Serum % 25%): 0.043 | ELISA absorbance, Anti-OAcGD3 antibody (Anti-OAcGD3 antibody; Serum % 50%): 0.047 | ELISA absorbance, Anti-OAcGD3 antibody (Anti-OAcGD3 antibody; Serum % 100%): 0.061 | reactivity of antiserum with GD3 (ELISA absorbance) ([1]; antiserum 1st (after first administration), dilution factor 1/100, MAP 5 μg/mouse s.c.): 0.071 and 0.247 and 0.086 (2×) and 0.08 and 0.063 and 0.082 and 0.042 | reactivity of antiserum with GD3 (ELISA absorbance) ([1]; antiserum 1st, dilution factor 1/400): 0.047 and 0.108 and 0.033 and 0.041 and 0.034 and 0.037 and 0.032 and 0.021 | reactivity of antiserum with GD3 (ELISA absorbance) ([1]; antiserum 1st, dilution factor 1/1600): 0.014 (2×) and 0.052 and 0.009 and 0.008 and 0.006 and 0.012 and 0.007 | reactivity of antiserum with GD3 (ELISA absorbance) ([1]; antiserum 2nd (after second administration), dilution factor 1/100): 0.08 and 0.164 and 0.195 and 0.153 and 0.124 and 0.147 and 0.05 and 0.122 | reactivity of antiserum with GD3 (ELISA absorbance) ([1]; antiserum 2nd, dilution factor 1/400): 0.07 and 0.114 and 0.128 and 0.093 and 0.106 and 0.079 and 0.057 and 0.058 | reactivity of antiserum with GD3 (ELISA absorbance) ([1]; antiserum 2nd, dilution factor 1/1600): 0.022 and 0.026 and 0.062 and 0.033 and 0.031 and 0.041 and 0.013 and 0.019 | reactivity of antiserum with GD3 (ELISA absorbance) ([1]; antiserum 3rd (after third administration), dilution factor 1/100): 0.088 and 0.176 and 0.253 and 0.19 and 0.168 and 0.113 and 0.147 and 0.116 | reactivity of antiserum with GD3 (ELISA absorbance) ([1]; antiserum 3rd, dilution factor 1/400): 0.042 and 0.093 and 0.111 and 0.104 and 0.098 and 0.045 and 0.061 and 0.053 | reactivity of antiserum with GD3 (ELISA absorbance) ([1]; antiserum 3rd, dilution factor 1/1600): 0.008 and 0.029 and 0.026 and 0.022 and 0.039 and 0.013 (2×) and 0.024 | reactivity of antiserum with GD3 ([1]; peptide used as immunogen (MAP)): high reactivity with GD3
